{"source": "patent US20250230193A1", "about": "“CYCLIC COMPOUND HAVING SELECTIVE KRAS INHIBITORY EFFECT ON HRAS AND NRAS” (CHUGAI SEIYAKU KABUSHIKI KAISHA, priority 2022, published 2025)", "key": {"[1]": {"biological_target": "GDP-bound HRAS wild-type protein (Homo sapiens, UniProt P01112)", "sequence (P01112 whole entry)": "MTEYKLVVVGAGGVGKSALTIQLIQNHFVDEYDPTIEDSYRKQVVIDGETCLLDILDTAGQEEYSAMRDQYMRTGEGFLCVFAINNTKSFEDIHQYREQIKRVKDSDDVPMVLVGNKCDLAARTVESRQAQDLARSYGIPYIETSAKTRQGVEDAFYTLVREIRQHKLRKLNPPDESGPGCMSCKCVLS", "test": "Binding to HRAS by surface plasmon resonance (SPR), Single Cycle Kinetics", "details": "for HRAS/KRAS (ratio of KD value with respect to HRAS to KD value with respect to KRAS): GDP-bound HRAS wild-type vs GDP-bound KRAS wild-type"}, "[2]": {"biological_target": "GDP-bound NRAS wild-type protein (Homo sapiens, UniProt P01111)", "sequence (P01111 whole entry)": "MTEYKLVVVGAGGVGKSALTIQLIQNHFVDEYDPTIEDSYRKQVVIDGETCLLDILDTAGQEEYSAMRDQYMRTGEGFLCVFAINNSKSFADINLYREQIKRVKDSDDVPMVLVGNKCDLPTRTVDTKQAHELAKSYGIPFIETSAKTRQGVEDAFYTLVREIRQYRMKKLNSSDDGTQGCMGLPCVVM", "test": "Binding to NRAS by surface plasmon resonance (SPR), Single Cycle Kinetics", "details": "for NRAS/KRAS (ratio of KD value with respect to NRAS to KD value with respect to KRAS): GDP-bound NRAS wild-type vs GDP-bound KRAS wild-type"}, "[3]": {"details": "KD ratio HRAS/KRAS, SPR, GDP-bound wild-type proteins"}, "[4]": {"details": "KD ratio NRAS/KRAS, SPR, GDP-bound wild-type proteins"}}, "note": "Where a SMILES comes first, the peptide text is derived from it. Bridges are numbered along the chain shown (N, C = ends). [ ]: non-standard residue; d: D form. hPhe(3-Cl-4-CF3) = N[C@@H](CCc1ccc(C(F)(F)F)c(Cl)c1)C(=O)O; NPrPhe(4-CF3) = CCCN[C@@H](Cc1ccc(C(F)(F)F)cc1)C(=O)O; NMeGly(cPent) = CN[C@H](C(=O)O)C1CCCC1; Pro(4,4-F2) = O=C(O)[C@@H]1CC(F)(F)CN1; NMeL = CN[C@@H](CC(C)C)C(=O)O; NMeA = CN[C@@H](C)C(=O)O; Ac5c = NC1(C(=O)O)CCCC1; Aze = O=C(O)[C@@H]1CCN1; Sar = CNCC(=O)O"}
{"smiles": "CC[C@H](C)[C@@H]1NC(=O)[C@H](CC(C)C)N(C)C(=O)C[C@@H](C(=O)N2CCOCC2)N(C)C(=O)[C@H](C2CCCC2)N(C)C(=O)C2(CCCC2)NC(=O)[C@@H]2CC(F)(F)CN2C(=O)[C@H](CCc2cc(F)c(C(F)(F)F)c(F)c2)NC(=O)CN(C)C(=O)[C@H](Cc2ccc(C(F)(F)F)cc2)N2CCCCC[C@@H](C2=O)N(C)C(=O)CN(C)C1=O", "note": "[PP0491]", "values": [{"measurement": "HRAS/KRAS (ratio of KD value with respect to GDP-bound HRAS wild-type protein to KD value with respect to KRAS)", "setting": "[1]; KD ratio HRAS/KRAS, SPR", "value": "B (a compound having 3 or more and less than 10 is denoted as B)"}, {"measurement": "NRAS/KRAS (ratio of KD value with respect to GDP-bound NRAS wild-type protein to KD value with respect to KRAS)", "setting": "[2]; KD ratio NRAS/KRAS, SPR", "value": "B (a compound having 3 or more and less than 10 is denoted as B)"}]}
{"smiles": "CCC(CC)[C@H]1C(=O)N(C)[C@H](C(=O)N(C)C)CC(=O)N(C)[C@@H](COC)C(=O)N[C@@H]([C@@H](C)CC)C(=O)N(C)CC(=O)N(C)[C@H]2C/C=C\\CCN(C2=O)[C@@H](CC2CCC(F)(F)CC2)C(=O)N(C)CC(=O)N[C@@H](CCc2ccc(C(F)(F)F)c(OC)c2)C(=O)N2C[C@@H](C)C[C@H]2C(=O)NC2(CC(C)(C)C2)C(=O)N1C", "note": "[PP2442]", "values": [{"measurement": "HRAS/KRAS (ratio of KD value with respect to HRAS to KD value with respect to KRAS)", "setting": "[1]; SPR", "value": "A (a compound having 10 or more and less than 20 is denoted as A)"}, {"measurement": "NRAS/KRAS (ratio of KD value with respect to NRAS to KD value with respect to KRAS)", "setting": "[2]; SPR", "value": "A (a compound having 10 or more and less than 20 is denoted as A)"}]}
{"smiles": "CCC[C@H]1C(=O)N[C@@H]([C@@H](C)CC)C(=O)N(C)CC(=O)N(C)[C@H]2C/C=C\\CCN(C2=O)[C@@H](Cc2ccc(C(F)(F)F)cc2)C(=O)N(C)CC(=O)N[C@@H](CCc2ccc(C(F)(F)F)c(Cl)c2)C(=O)N2CCOC[C@H]2C(=O)NC2(CC(C)(C)C2)C(=O)N(C)[C@@H](C(CC)CC)C(=O)N(C)[C@H](C(=O)N(C)C)CC(=O)N1C", "note": "[PP2929]", "values": [{"measurement": "HRAS/KRAS (ratio of KD value with respect to GDP-bound HRAS wild-type protein to KD value with respect to KRAS)", "setting": "[1]; KD ratio HRAS/KRAS, class symbols", "value": "A (a compound having 10 or more and less than 20 is denoted as A)"}, {"measurement": "NRAS/KRAS (ratio of KD value with respect to GDP-bound NRAS wild-type protein to KD value with respect to KRAS)", "setting": "[2]; KD ratio NRAS/KRAS, class symbols", "value": "AA (a compound having 20 or more is denoted as AA)"}]}
{"smiles": "CCCN1C(=O)[C@@H]2CCN2C(=O)[C@H](C)N(C)C(=O)[C@H]([C@@H](C)CC)NC(=O)[C@H](CC(C)C)N(C)C(=O)C[C@@H](C(=O)N(C)C)NC(=O)[C@H](C2CCCC2)N(C)C(=O)C2(CCCC2)NC(=O)[C@@H]2CC(F)(F)CN2C(=O)[C@H](CCc2ccc(C(F)(F)F)c(Cl)c2)NC(=O)CN(C)C(=O)[C@@H]1Cc1ccc(C(F)(F)F)cc1", "note": "[PP0381] ([NMeL]I[NMeA][Aze][NPrPhe(4-CF3)][Sar][hPhe(3-Cl-4-CF3)][Pro(4,4-F2)][Ac5c][NMeGly(cPent)]D-NMe2; lactam N-11)", "values": [{"measurement": "HRAS/KRAS (ratio of KD for GDP-bound HRAS wild-type to KD for KRAS)", "setting": "[1]; KD ratio HRAS/KRAS, SPR", "value": "B (a compound having 3 or more and less than 10 is denoted as B)"}, {"measurement": "NRAS/KRAS (ratio of KD for GDP-bound NRAS wild-type to KD for KRAS)", "setting": "[2]; KD ratio NRAS/KRAS, SPR", "value": "C (A compound having a KD ratio of 0.1 or more and less than 3 is denoted as C)"}]}
{"smiles": "CCO[C@@H]1C[C@H]2C(=O)NC3(CCC3)C(=O)N(C)[C@@H](C3CCCC3)C(=O)N(C)[C@H](C(=O)N3CCOCC3)CC(=O)N(C)[C@@H](COC)C(=O)N[C@@H]([C@@H](C)CC)C(=O)N(C)CC(=O)N(C)[C@H]3CCCCCN(C3=O)[C@@H](Cc3ccc(C(F)(F)F)cc3)C(=O)N(C)CC(=O)N[C@@H](CCc3ccc(C(F)(F)F)c(F)c3)C(=O)N2C1", "note": "[PP0848]", "values": [{"measurement": "HRAS/KRAS (ratio of KD value with respect to HRAS to KD value with respect to KRAS)", "setting": "[1]; KD ratio, SPR", "value": "B (a compound having 3 or more and less than 10 is denoted as B)"}, {"measurement": "NRAS/KRAS (ratio of KD value with respect to NRAS to KD value with respect to KRAS)", "setting": "[2]; KD ratio, SPR", "value": "B (a compound having 3 or more and less than 10 is denoted as B)"}]}
{"smiles": "CCC[C@H]1C(=O)N[C@@H]([C@@H](C)CC)C(=O)N(C)CC(=O)N(C)[C@H]2C/C=C\\CCN(C2=O)[C@@H](Cc2ccc(C(F)(F)F)cc2)C(=O)N(C)CC(=O)N[C@@H](CCc2ccc(C(F)(F)F)c(Cl)c2)C(=O)N2C[C@H](OCC)C[C@H]2C(=O)NC2(CC(C)(C)C2)C(=O)N(C)[C@@H](CC(F)(F)F)C(=O)N(C)[C@H](C(=O)N(C)C)CC(=O)N1C", "note": "[PP2975]", "values": [{"measurement": "HRAS/KRAS (ratio of KD value with respect to GDP-bound HRAS wild-type protein to KD value with respect to KRAS)", "setting": "[1]; [3]", "value": "A (a compound having 10 or more and less than 20 is denoted as A)"}, {"measurement": "NRAS/KRAS (ratio of KD value with respect to GDP-bound NRAS wild-type protein to KD value with respect to KRAS)", "setting": "[2]; [4]", "value": "A (a compound having 10 or more and less than 20 is denoted as A)"}]}
{"smiles": "CCO[C@@H]1C[C@H]2C(=O)NC3(CC(C)(C)C3)C(=O)N(C)[C@@H](C(CC)CC)C(=O)N(C)[C@H](C(=O)N(C)C)CC(=O)N(C)[C@H]3CCCCCc4ccc(cc4)C[C@@H](C(=O)N(C)CC(=O)N[C@@H](CCc4ccc(C(F)(F)F)c(OC)c4)C(=O)N2C1)N1CC/C=C\\C[C@@H](C1=O)N(C)C(=O)CN(C)C(=O)[C@H]([C@@H](C)CC)NC3=O", "note": "[PP3035]", "values": [{"measurement": "HRAS/KRAS (ratio of KD value with respect to GDP-bound HRAS wild-type protein to KD value with respect to KRAS)", "setting": "[1]; [3]", "value": "A (a compound having 10 or more and less than 20 is denoted as A)"}, {"measurement": "NRAS/KRAS (ratio of KD value with respect to GDP-bound NRAS wild-type protein to KD value with respect to KRAS)", "setting": "[2]; [4]", "value": "AA (a compound having 20 or more is denoted as AA)"}]}
